Here are results for one compound from ChEMBL document CHEMBL2073998, “Piperine, a major constituent of black pepper, inhibits human P-glycoprotein and CYP3A4” (J Pharmacol Exp Ther, 2002).

Assay [1] has as its target T1, ATP-dependent translocase ABCB1 (Homo sapiens, UniProt P08183). The assay can be described thus: TP_TRANSPORTER: inhibition of Digoxin transepithelial transport (basal to apical) (Digoxin: 5 uM) in Caco-2 cells. In kind it is functional, cell-based. (Caco-2 cells form a polarised layer with tight junctions and transporters.)
In assay [2] the target is T1, ATP-dependent translocase ABCB1. The assay can be described thus: TP_TRANSPORTER: inhibition of Cyclosporin A transepithelial transport (basal to apical) (Cyclosporin A: 1 uM) in Caco-2 cells. In kind it is functional, cell-based.

A word on the IC50: it is the concentration that inhibits the measured activity by half.

T1 sequence (P08183 whole entry): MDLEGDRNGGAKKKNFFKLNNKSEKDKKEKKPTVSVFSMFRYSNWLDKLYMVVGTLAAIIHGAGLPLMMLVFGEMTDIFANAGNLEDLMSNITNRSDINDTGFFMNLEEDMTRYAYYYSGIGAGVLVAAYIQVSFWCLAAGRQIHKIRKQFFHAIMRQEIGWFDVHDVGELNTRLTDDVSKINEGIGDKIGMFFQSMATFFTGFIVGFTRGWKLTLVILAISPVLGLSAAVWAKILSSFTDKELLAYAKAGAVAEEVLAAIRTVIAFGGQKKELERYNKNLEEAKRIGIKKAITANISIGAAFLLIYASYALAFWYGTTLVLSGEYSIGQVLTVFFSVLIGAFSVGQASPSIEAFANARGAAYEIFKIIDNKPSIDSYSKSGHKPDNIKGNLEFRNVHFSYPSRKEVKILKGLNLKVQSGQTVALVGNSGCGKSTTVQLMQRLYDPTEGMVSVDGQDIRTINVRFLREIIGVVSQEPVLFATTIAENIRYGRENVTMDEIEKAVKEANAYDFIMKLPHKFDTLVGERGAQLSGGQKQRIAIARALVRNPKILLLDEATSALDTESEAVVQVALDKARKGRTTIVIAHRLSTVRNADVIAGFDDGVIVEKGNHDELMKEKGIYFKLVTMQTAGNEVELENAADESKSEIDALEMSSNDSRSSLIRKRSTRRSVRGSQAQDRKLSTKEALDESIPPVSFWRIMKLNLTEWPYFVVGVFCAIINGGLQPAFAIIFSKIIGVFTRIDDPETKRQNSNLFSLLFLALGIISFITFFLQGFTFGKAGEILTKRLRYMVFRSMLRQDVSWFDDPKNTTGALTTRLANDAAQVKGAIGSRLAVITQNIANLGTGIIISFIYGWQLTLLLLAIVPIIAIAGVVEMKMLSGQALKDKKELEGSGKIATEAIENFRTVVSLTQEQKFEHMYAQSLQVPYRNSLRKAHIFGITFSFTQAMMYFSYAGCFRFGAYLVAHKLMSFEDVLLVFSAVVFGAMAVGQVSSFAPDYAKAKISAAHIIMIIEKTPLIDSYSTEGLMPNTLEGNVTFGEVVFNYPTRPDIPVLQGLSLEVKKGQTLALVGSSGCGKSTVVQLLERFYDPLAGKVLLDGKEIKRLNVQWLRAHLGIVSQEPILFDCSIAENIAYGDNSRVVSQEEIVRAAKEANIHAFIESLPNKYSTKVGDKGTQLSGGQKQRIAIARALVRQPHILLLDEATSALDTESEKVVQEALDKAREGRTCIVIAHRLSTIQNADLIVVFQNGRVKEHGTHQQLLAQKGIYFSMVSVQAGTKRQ

As for `O=C(/C=C/C=C/c1ccc2c(c1)OCO2)N1CCCCC1` [PIPERINE], the IC50 in assay [1] is 15.5 µM; in assay [2], 74.1 µM.
